Measurements from PubChem BioAssay AID256 (DTP/NCI, 2004).
Where “and” joins values, the source holds several entries; their conditions need not be identical. Identical values can stand only once. Toxic doses and inconclusive results are not listed. The calls were made as follows: active = survival T/C of 150% or more; inactive = T/C below 125% in these data.

System: CD2F1 mice, L1210 leukemia ip, survival T/C
Test: NCI In Vivo Anticancer Drug Screen. Data for tumor model L1210 Leukemia (intraperitoneal) in CD2F1 (CDF1) mice
Details: higher = longer survival
Procedure, shortened: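 Vehicle-treated tumor-bearing mice served as controls (C) for compound-treated mice (T). Reported figure is T divided by C.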

[1] = endpoint: mean survival time, dose: 100.0 mg/kg/injection, schedule: Q01DX009 (ip), vehicle: saline with Tween-80
[2] = endpoint: mean survival time, dose: 100.0 mg/kg/injection, schedule: Q04DX003 (ip), vehicle: saline with Tween-80
[3] = endpoint: mean survival time, dose: 200.0 mg/kg/injection, schedule: Q01DX009 (ip), vehicle: saline with Tween-80
[4] = endpoint: mean survival time, dose: 200.0 mg/kg/injection, schedule: Q04DX003 (ip), vehicle: saline with Tween-80
[5] = endpoint: mean survival time, dose: 400.0 mg/kg/injection, schedule: Q01DX009 (ip), vehicle: saline with Tween-80
[6] = endpoint: mean survival time, dose: 400.0 mg/kg/injection, schedule: Q04DX003 (ip), vehicle: saline with Tween-80
[7] = endpoint: mean survival time, dose: 50.0 mg/kg/injection, schedule: Q01DX009 (ip), vehicle: saline with Tween-80
[8] = endpoint: mean survival time, dose: 100.0 mg/kg/injection, schedule: Q01DX009 (ip), vehicle: Klucel (hydroxypropylcellulose) (HPC)
[9] = endpoint: mean survival time, dose: 200.0 mg/kg/injection, schedule: Q01DX009 (ip), vehicle: Klucel (hydroxypropylcellulose) (HPC)
[10] = endpoint: mean survival time, dose: 50.0 mg/kg/injection, schedule: Q01DX009 (ip), vehicle: saline
[11] = endpoint: mean survival time, dose: 100.0 mg/kg/injection, schedule: Q01DX009 (ip), vehicle: saline

Measured: T/C

O=C(CCCCCCC(=O)ON1C(=O)CCC1=O)ON1C(=O)CCC1=O
inactive: endpoint: median survival time, dose: 25.0 mg/kg/injection, schedule: Q01DX009 (ip), vehicle: saline with Tween-80 102 % of control | endpoint: median survival time, dose: 50.0 mg/kg/injection, schedule: Q01DX009 (ip), vehicle: saline with Tween-80 102 % of control | endpoint: median survival time, dose: 100.0 mg/kg/injection, schedule: Q01DX009 (ip), vehicle: saline with Tween-80 103 % of control | endpoint: median survival time, dose: 200.0 mg/kg/injection, schedule: Q01DX009 (ip), vehicle: saline with Tween-80 102 % of control

NC(=O)CSc1ccccc1
inactive: endpoint: mean survival time, dose: 100.0 mg/kg/injection, schedule: Q01DX001 (ip), vehicle: other 101 % of control | endpoint: mean survival time, dose: 200.0 mg/kg/injection, schedule: Q01DX001 (ip), vehicle: other 101 % of control | endpoint: mean survival time, dose: 400.0 mg/kg/injection, schedule: Q01DX001 (ip), vehicle: other 107 % of control

O=C(O)CCCc1ccc(Oc2ccccc2)cc1
inactive: endpoint: mean survival time, dose: 100.0 mg/kg/injection, schedule: Q01DX009 (ip), vehicle: other 94 % of control | endpoint: mean survival time, dose: 100.0 mg/kg/injection, schedule: Q04DX003 (ip), vehicle: other 106 % of control | endpoint: mean survival time, dose: 200.0 mg/kg/injection, schedule: Q01DX009 (ip), vehicle: other 95 % of control | endpoint: mean survival time, dose: 200.0 mg/kg/injection, schedule: Q04DX003 (ip), vehicle: other 93 % of control | endpoint: mean survival time, dose: 400.0 mg/kg/injection, schedule: Q01DX009 (ip), vehicle: other 96 % of control | endpoint: mean survival time, dose: 400.0 mg/kg/injection, schedule: Q04DX003 (ip), vehicle: other 95 % of control

CCNC(=O)OC(C)C
inactive: endpoint: mean survival time, dose: 100.0 mg/kg/injection, schedule: Q04DX002 (ip), vehicle: saline with Tween-80 90 % of control | endpoint: mean survival time, dose: 200.0 mg/kg/injection, schedule: Q04DX002 (ip), vehicle: saline with Tween-80 102 % of control | endpoint: mean survival time, dose: 400.0 mg/kg/injection, schedule: Q04DX002 (ip), vehicle: saline with Tween-80 94 % of control

COc1ccc(C2=NNc3n[nH]c(=S)n3N2)cc1OC
inactive: [1] 93 % of control | [2] 91 % of control | [3] 93 % of control | [4] 101 % of control | [5] 104 % of control | [6] 90 % of control

CCCCN1C(=O)C(=O)N(c2ccc(NC(C)=O)cc2)C1=O
inactive: [7] 93 % of control | [1] 89 % of control | [3] 89 % of control

CCCCCCCCCNP(=O)(OCc1ccccc1)N(CCCl)CCCl (centres undefined)
inactive: endpoint: mean survival time, dose: 25.0 mg/kg/injection, schedule: Q01DX001 (ip), vehicle: DMSO 94 % of control | endpoint: mean survival time, dose: 50.0 mg/kg/injection, schedule: Q01DX001 (ip), vehicle: DMSO 94 % of control | endpoint: mean survival time, dose: 100.0 mg/kg/injection, schedule: Q01DX001 (ip), vehicle: DMSO 95 % of control | endpoint: mean survival time, dose: 200.0 mg/kg/injection, schedule: Q01DX001 (ip), vehicle: DMSO 94 % of control | endpoint: mean survival time, dose: 400.0 mg/kg/injection, schedule: Q01DX001 (ip), vehicle: DMSO 91 % of control

S=C(Nc1ccc(Cl)c(Cl)c1)N1c2ccccc2-n2cccc2C1c1cccnc1 (centres undefined)
inactive: endpoint: mean survival time, dose: 12.5 mg/kg/injection, schedule: Q01DX009 (ip), vehicle: Klucel (hydroxypropylcellulose) (HPC) 96 % of control and 104 % of control | endpoint: mean survival time, dose: 25.0 mg/kg/injection, schedule: Q01DX009 (ip), vehicle: Klucel (hydroxypropylcellulose) (HPC) 98 % of control and 105 % of control | endpoint: mean survival time, dose: 50.0 mg/kg/injection, schedule: Q01DX009 (ip), vehicle: Klucel (hydroxypropylcellulose) (HPC) 104 % of control and 109 % of control | [8] 113 % of control and 114 % of control and 107 % of control | [9] 115 % of control and 120 % of control and 123 % of control | endpoint: mean survival time, dose: 400.0 mg/kg/injection, schedule: Q01DX009 (ip), vehicle: Klucel (hydroxypropylcellulose) (HPC) 112 % of control

O=C(N/N=C\c1c(Cl)cccc1Cl)c1ccccc1
inactive: [8] 94 % of control | endpoint: mean survival time, dose: 100.0 mg/kg/injection, schedule: Q04DX003 (ip), vehicle: Klucel (hydroxypropylcellulose) (HPC) 100 % of control | [9] 96 % of control | endpoint: mean survival time, dose: 200.0 mg/kg/injection, schedule: Q04DX003 (ip), vehicle: Klucel (hydroxypropylcellulose) (HPC) 100 % of control | endpoint: mean survival time, dose: 400.0 mg/kg/injection, schedule: Q04DX003 (ip), vehicle: Klucel (hydroxypropylcellulose) (HPC) 96 % of control

Cc1ccc(OS(=O)(=O)c2ccc(C)cc2)cc1
inactive: [1] 97 % of control | [2] 96 % of control | [3] 100 % of control | [4] 93 % of control | [5] 96 % of control | [6] 98 % of control

C=C.O=C(O)/C=C\C(=O)O.[Mn]
inactive: endpoint: mean survival time, dose: 1.0 mg/kg/injection, schedule: Q01DX009 (ip), vehicle: saline with Tween-80 95 % of control | endpoint: mean survival time, dose: 1.0 mg/kg/injection, schedule: Q04DX003 (ip), vehicle: saline with Tween-80 97 % of control | endpoint: mean survival time, dose: 2.0 mg/kg/injection, schedule: Q01DX009 (ip), vehicle: saline with Tween-80 95 % of control | endpoint: mean survival time, dose: 2.0 mg/kg/injection, schedule: Q04DX003 (ip), vehicle: saline with Tween-80 95 % of control | endpoint: mean survival time, dose: 4.0 mg/kg/injection, schedule: Q04DX003 (ip), vehicle: saline with Tween-80 91 % of control

O=C(CCC(=O)NO)NO
inactive: endpoint: mean survival time, dose: 100.0 mg/kg/injection, schedule: Q04DX002 (ip), vehicle: saline 101 % of control | endpoint: mean survival time, dose: 200.0 mg/kg/injection, schedule: Q04DX002 (ip), vehicle: saline 90 % of control

N=C(N)c1ccc(OCCOc2cccc(N)c2)cc1
inactive: endpoint: mean survival time, dose: 25.0 mg/kg/injection, schedule: Q01DX009 (ip), vehicle: saline 100 % of control | [10] 95 % of control | [1] 93 % of control | [11] 97 % of control

COC1=CC(=O)C=C(OC)C1=O
inactive: endpoint: mean survival time, dose: 4.0 mg/kg/injection, schedule: Q01DX009 (ip), vehicle: saline 96 % of control | endpoint: mean survival time, dose: 8.0 mg/kg/injection, schedule: Q01DX009 (ip), vehicle: saline 98 % of control | endpoint: mean survival time, dose: 16.0 mg/kg/injection, schedule: Q01DX009 (ip), vehicle: saline 96 % of control

CCCCCCCCCCCCCCCC(=O)NCC[N+](C)(CC)CC
inactive: endpoint: mean survival time, dose: 75.0 mg/kg/injection, schedule: Q01DX001 (ip), vehicle: saline 109 % of control

CCC/C=C/C(O)C(C)C(C)C (centres undefined)
inactive: [7] 103 % of control | [1] 103 % of control | [3] 98 % of control

O=C(CC(=O)Nc1ccccc1)Nc1ccccc1
inactive: [2] 100 % of control | [4] 100 % of control | [6] 99 % of control

[C-]1=CC2C=CC1C1[C-]=CC21.[Cl][Pd][Cl] (centres undefined)
inactive: endpoint: mean survival time, dose: 12.5 mg/kg/injection, schedule: Q01DX009 (ip), vehicle: saline with Tween-80 94 % of control

Cc1ccccc1N=C(NO)c1ccccc1
inactive: [10] 98 % of control | [11] 98 % of control | endpoint: mean survival time, dose: 200.0 mg/kg/injection, schedule: Q01DX009 (ip), vehicle: saline 95 % of control

O=C(CN1C(=O)CCC1=O)NCCc1cccc(OCc2ccccc2)c1
inactive: [1] 94 % of control | [2] 97 % of control | [3] 89 % of control | [4] 97 % of control | [5] 91 % of control | [6] 97 % of control

CC(=O)CC(C)=NCCN=C(C)CC(C)=O.[Pd]
inactive: endpoint: mean survival time, dose: 3.13 mg/kg/injection, schedule: Q04DX003 (ip), vehicle: distilled water + Tween-80 93 % of control | endpoint: mean survival time, dose: 6.25 mg/kg/injection, schedule: Q04DX003 (ip), vehicle: distilled water + Tween-80 108 % of control | endpoint: mean survival time, dose: 12.5 mg/kg/injection, schedule: Q04DX003 (ip), vehicle: distilled water + Tween-80 100 % of control

c1ccc(CCc2nc(-c3ccccc3)cc(-c3ccccc3)n2)cc1
inactive: endpoint: mean survival time, dose: 100.0 mg/kg/injection, schedule: Q01DX001 (ip), vehicle: saline with Tween-80 89 % of control | endpoint: mean survival time, dose: 200.0 mg/kg/injection, schedule: Q01DX001 (ip), vehicle: saline with Tween-80 92 % of control | endpoint: mean survival time, dose: 400.0 mg/kg/injection, schedule: Q01DX001 (ip), vehicle: saline with Tween-80 87 % of control
